# Results published in article PMC10928712, “High Target Homology Does Not Guarantee Inhibition: Aminothiazoles Emerge as Inhibitors of Plasmodium falciparum” (ACS Infectious Diseases, 2024).
# Like-named read-outs stand apart in the source and are kept apart here.
# Key:
# P. falciparum Dd2 = assay: Method III growth inhibition assay (HRP2-ELISA, 3 days), Dd2; assay type: cell-based, Plasmodium falciparum
# P. falciparum 3D7 = assay: Method III growth inhibition assay (HRP2-ELISA, 3 days), 3D7; assay type: cell-based, Plasmodium falciparum
# [1] = Plasmodium falciparum, DD2, chloroquine-resistant Dd2, method III
# [2] = Plasmodium falciparum, 3D7, 3D7, method III (HRP2 assay), drc package of R, read-out: IC50 P. falciparum 3D7 (method III)
# [3] = chloroquine-resistant Dd2, method III
# [4] = 3D7, method III (HRP2 assay), drc package of R, read-out: IC50 P. falciparum 3D7 (method III)
# [5] = Plasmodium falciparum, 3D7, table of compounds as SMILES with biological activity, strain not given, values match 3D7 method III, read-out: IC50
# [6] = table of compounds as SMILES with biological activity, strain not given, values match 3D7 method III, read-out: IC50
Compound,IC50 (P. falciparum Dd2; [1]) [µM],IC50 (P. falciparum 3D7; [2]) [µM],IC50 (P. falciparum Dd2; [3]) [µM],IC50 (P. falciparum 3D7; [4]) [µM],IC50 (P. falciparum 3D7; [5]) [µM],IC50 (P. falciparum 3D7; [6]) [µM]
Oc1ccc(-c2csc(Nc3cccc(C(F)(F)F)c3)n2)c(O)c1 [compound 37],19 ± 2,23 ± 1,,,,
"COc1ccc(C(Cc2ccc(Cl)cc2)=NO)cn1 [7E, 2-(4-Chlorophenyl)-1-(6-methoxypyridin-3-yl)ethan-1-one oxime]",,,> 55,44 ± 10,43.6,
"N^2-(3-Methoxyphenyl)-4′-methyl-[5,5′-bithiazole]-2,2′-diamine [compound 39]",,,,18,,17.9
"ON=C(Cc1ccc(Cl)cc1)c1ccc(O)nc1 [8E, 2-(4-Chlorophenyl)-1-(6-hydroxypyridin-3-yl)ethan-1-one oxime]",,,> 111,> 111,,
N-(3-Chloro-2-methylphenyl)-5-(pyridin-2-yl)thiazol-2-amine [compound 44],,,2 ± 1,3,,2.8
"OCc1cn(-c2ccc(Cl)c(Cl)c2)c2ccccc12 [compound 15, (1-(3,4-Dichlorophenyl)-1H-indol-3-yl)methanol]",54 ± 6,> 56,,,55.5,
"4-(2-((4-(Trifluoromethyl)phenyl)amino)thiazol-5-yl)benzene-1,3-diol [compound 38]",,,,22 ± 6,,22.1
"Cc1cn(Cc2ccc(Cl)c(Cl)c2)c2ccccc12 [compound 26, 1-(3,4-Dichlorobenzyl)-3-methyl-1H-indole]",11 ± 5,~10,,10.2,,
"N^2-(3-Chloro-2-methylphenyl)-4′-methyl-[5,5′-bithiazole]-2,2′-diamine [compound 40]",,,,16 ± 2,,15.9
Cc1nc(N)sc1-c1csc(Nc2ccccc2C(F)(F)F)n1 [compound 35],48 ± 12,43 ± 2,,,,
5-(Pyridin-4-yl)-N-(4-(trifluoromethyl)phenyl)thiazol-2-amine [compound 36],,,,34 ± 2,,34.2
COc1cccc2c(CO)cn(Cc3ccc(Cl)c(Cl)c3)c12 [compound 16],48 ± 13,> 56,,,55.5,
"COc1ccc2c(c1)c(CO)cn2Cc1ccc(Cl)c(Cl)c1 [compound 21, (1-(3,4-Dichlorobenzyl)-5-methoxy-1H-indol-3-yl)methanol]",54 ± 6,19 ± 1,,,18.5,
"OCc1cn(Cc2ccc(Cl)c(Cl)c2)c2c(Cl)cccc12 [compound 23, (7-Chloro-1-(3,4-dichlorobenzyl)-1H-indol-3-yl)methanol]",36 ± 16,13,,14 ± 1,,
"O=[N+]([O-])c1ccc2c(c1)c(CO)cn2Cc1ccc(Cl)c(Cl)c1 [compound 29, (1-(3,4-Dichlorobenzyl)-5-nitro-1H-indol-3-yl)methanol]",4 ± 1,< 10,,7,7.2,
"OCc1cn(Cc2ccc(Cl)c(Cl)c2)c2cc(F)ccc12 [compound 27, (1-(3,4-Dichlorobenzyl)-6-fluoro-1H-indol-3-yl)methanol]",10 ± 5,< 10,,9 ± 2,8.9,
COc1ccc(C(Cc2ccc(Cl)cc2)=NO)c(O)c1 [compound 9],24 ± 6,47 ± 15,,,46.8,
OCc1cn(Cc2ccc(Cl)cc2)c2ccccc12 [compound 20],22 ± 5,28 ± 14,,,27.2,
"OCc1cn(Cc2ccccc2)c2cccc(F)c12 [compound 25, (1-Benzyl-4-fluoro-1H-indol-3-yl)methanol]",9,12 ± 2,,,11.9,
"ON=C(Cc1ccc(Cl)cc1)c1ccc(O)nc1 [8Z, 2-(4-Chlorophenyl)-1-(6-hydroxypyridin-3-yl)ethan-1-one oxime]",,,> 28,> 28,,
"OCc1cn(Cc2ccccc2)c2ccc(Br)cc12 [compound 30, (1-Benzyl-5-bromo-1H-indol-3-yl)methanol]",5 ± 3,< 10,,6 ± 1,6.1,
